# Reference: patent US12275729B2 (Merck Sharp & Dohme LLC, priority 2017, dated 2025)
# Molecular target: IDO1 (Homo sapiens, UniProt P14902)
# Test: IDO1 Cellular Assay in HeLa Cells Stimulated with IFNγ
# Format: cell-based
# Conditions: about 48 hours, read-out: Hela IC50
# Sequence of IDO1 (P14902 whole entry): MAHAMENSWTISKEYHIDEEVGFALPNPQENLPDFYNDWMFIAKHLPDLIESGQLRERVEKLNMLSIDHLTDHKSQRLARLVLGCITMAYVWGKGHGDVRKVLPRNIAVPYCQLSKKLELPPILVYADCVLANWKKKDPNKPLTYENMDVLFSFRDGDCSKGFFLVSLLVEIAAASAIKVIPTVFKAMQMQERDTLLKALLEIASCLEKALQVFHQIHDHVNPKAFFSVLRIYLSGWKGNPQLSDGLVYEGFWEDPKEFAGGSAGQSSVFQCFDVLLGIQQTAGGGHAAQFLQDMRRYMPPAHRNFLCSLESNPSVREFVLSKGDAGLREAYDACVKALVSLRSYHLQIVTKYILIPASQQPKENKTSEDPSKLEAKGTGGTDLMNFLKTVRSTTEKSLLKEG
row,SMILES,IC50
1,"C[C@H](C(=O)Nc1ccc(F)cc1)c1ccc2c(c1)CCCN2C(=O)C1CC(F)(F)C1 [Example 79, (2S)-2-[1-(3,3-difluorocyclobutane-1-carbonyl)-1,2,3,4-tetrahydroquinolin-6-yl]-N-(4-fluorophenyl)propanamide]",34.7 nM
2,"COC(=O)N1CCCc2nc(C3(C(=O)Nc4ccc(F)cc4)CC3)ccc21 [Example 222, methyl 6-{1-[(4-fluorophenyl)carbamoyl]cyclopropyl}-3,4-dihydro-1,5-naphthyridine-1(2H)-carboxylate]",21.8 nM
3,"O=C([C@H]1CCCO1)N1CCCc2nc(C3(C(=O)Nc4ccc(F)cc4)CCC3)ccc21 [Example 180, N-(4-fluorophenyl)-1-{5-[(2R)-oxolane-2-carbonyl]-5,6,7,8-tetrahydro-1,5-naphthyiridin-2-yl}cyclobutane-1-carboxamide]",1.9 nM
4,"COC(=O)N1CCCc2nc(C3(C(=O)Nc4ccc(F)cc4)CCC3)ccc21 [Example 216, methyl 6-{1-[(4-fluorophenyl)carbamoyl]cyclobutyl}-3,4-dihydro-1,5-naphthyridine-1(2H)-carboxylate]",1.5 nM
5,"CC(C(=O)Nc1ccc(F)cc1)c1ccc2c(n1)CCCN2C(=O)C1CCOCC1 (stereo not shown) [Example 167, N-(4-fluorophenyl)-2-[5-(oxane-4-carbonyl)-5,6,7,8-tetrahydro-1,5-naphthyridin-2-yl]propanamide]",5.1 nM
6,"COc1ccnc(N2CCCc3nc(C4(NC(=O)c5ccc(F)cc5)CC4)ccc32)n1 [Example 298, 4-fluoro-N-(1-(5-(4-methoxypyrimidin-2-yl)-5,6,7,8-tetrahydro-1,5-naphthyridin-2-yl)cyclopropyl)benzamide]",14.5 nM
7,"CC(NC(=O)c1ccc(Cl)cc1)c1ccc2c(n1)OCCN2C(=O)c1ccccc1 (racemic) [Example 253, N-(1-(1-benzoyl-2,3-dihydro-1H-pyrido[2,3-b][1,4]oxazin-6-yl)ethyl)-4-chlorobenzamide]",3.5 nM
8,"O=C(N1CCCc2cc(C3(C(=O)Nc4ccc(F)cn4)CCC3)ccc21)C1(F)CC1 [Example 99, 1-[1-(1-fluorocyclopropane-1-carbonyl)-1,2,3,4-tetrahydroquinolin-6-yl]-N-(5-fluoropyridin-2-yl)cyclobutane-1-carboxamide]",16.8 nM
9,"CCOC(=O)N1CCCc2cc(C3(C(=O)Nc4ccc(F)cn4)CCC3)ccc21 [Example 211, ethyl 6-{1-[(5-fluoropyridin-2-yl)carbamoyl]-cyclobutyl}-3,4-dihydroquinoline-1(2H)-carboxylate]",2.2 nM
10,"CC(C(=O)Nc1ccc(F)cc1)c1ccc2c(n1)CCCN2C(=O)[C@@H]1CCCO1 (single isomer, unassigned) [Example 163]",21.8 nM
11,"O=C(NC1(c2ccc3c(n2)CCCN3C(=O)NC2CC2)CC1)c1ccc(F)cc1 [Example 214, N-cyclopropyl-6-{1-[(4-fluorobenzene-1-carbonyl)amino]cyclopropyl}-3,4-dihydro-1,5-naphthyridine-1(2H)-carboxamide]",159 nM
12,"COC(=O)N1CCCc2nc(C3(NC(=O)c4ccc(Cl)cc4)CCC3)ccc21 [Example 219, methyl 6-{1-[(4-chlorobenzene-1-carbonyl)amino]cyclobutyl}-3,4-dihydro-1,5-naphthyridine-1(2H)-carboxylate]",9.9 nM
13,"COC(=O)N1CCCc2nc(C3(C(=O)Nc4ccc(Cl)cc4)CCC3)ccc21 [Example 218, methyl 6-{1-[(4-chlorophenyl)carbamoyl]cyclobutyl}-3,4-dihydro-1,5-naphthyridine-1(2H)-carboxylate]",5.1 nM

# Further lines, results first:
row,IC50,SMILES
1,3.9 nM,"Cc1cc(C(=O)N2CCCc3cc(C(C)C(=O)Nc4ccc(F)cc4)ccc32)no1 (stereo not shown) [Example 46, N-(4-fluorophenyl)-2-[1-(5-methyl-1,2-oxazole-3-carbonyl)-1,2,3,4-tetrahydroquinolin-6-yl]propanamide]"
2,10.9 nM,"O=C(Nc1ccc(F)cc1)C1(c2ccc3c(n2)CCN3c2ccccn2)CCC1 [Example 271, N-(4-fluorophenyl)-1-[1-(pyridin-2-yl)-2,3-dihydro-1H-pyrrolo[3,2-b]pyridin-5-yl]cyclobutane-1-carboxamide]"
3,3.3 nM,"CCN(C(=O)N1CCc2cc(C3(C(=O)Nc4ccc(Cl)cc4)CCC3)ccc21)C(C)C [Example 274, 5-{1-[(4-chlorophenyl)carbamoyl]cyclobutyl}-N-ethyl-N-(propan-2-yl)-2,3-dihydro-1H-indole-1-carboxamide]"
4,103 nM,"CC(C)CC(=O)N1CCCc2cc(CNC(=O)c3cccc(Cl)c3)ccc21 [Example 2, 3-chloro-N-{[1-(3-methylbutanoyl)-1,2,3,4-tetrahydroquinolin-6-yl]methyl}benzamide]"
5,2.2 nM,"O=C(c1cccc(Cl)c1)N1CCCc2nc(C3(C(=O)Nc4ccc(F)cc4)COC3)ccc21 [Example 267, 3-(5-(3-chlorobenzoyl)-5,6,7,8-tetrahydro-1,5-naphthyridin-2-yl)-N-(4-fluorophenyl)oxetane-3-carboxamide]"
6,7.2 nM,"CC(C(=O)Nc1ccc(F)cc1)c1ccc2c(c1)CCCN2C(=O)C1(C(F)(F)F)CC1 (stereo not shown) [Example 66, N-(4-fluorophenyl)-2-{1-[1-(trifluoromethyl)cyclopropane-1-carbonyl]-1,2,3,4-tetrahydroquinolin-6-yl}propanamide]"
7,7 nM,"CC(NC(=O)c1ccc(F)cc1)c1ccc2c(n1)CCCN2C(=O)c1ccccn1 (stereo not shown) [Example 280, 2-(1-(4-fluorobenzamido)ethyl)-5-picolinoyl-5,6,7,8-tetrahydro-1,5-naphthyridin-1-ium 2,2,2-trifluoroacetate]"
8,5.7 nM,"CC(C)(C(=O)Nc1ccc(F)cc1)c1ccc2c(n1)CCCN2C(=O)c1cccc(Cl)c1 [Example 188, 2-[5-(3-chlorobenzene-1-carbonyl)-5,6,7,8-tetrahydro-1,5-naphthyridin-2-yl]-N-(4-fluorophenyl)-2-methylpropanamide]"
9,149 nM,"CN(C)C(=O)N1CCCc2cc(C3(C(=O)Nc4ccc(F)cn4)CCC3)ccc21 [Example 102, 6-{1-[(5-fluoropyridin-2-yl)carbamoyl]cyclobutyl}-N,N-dimethyl-3,4-dihydroquinoline-1(2H)-carboxamide]"
10,3.2 nM,"CC(NC(=O)c1ccc(Cl)cc1)c1ccc2c(n1)CCCN2C(=O)c1cc(C2CC2)ccn1 (stereo not shown) [Example 288, 4-chloro-N-(1-(5-(4-cyclopropylpicolinoyl)-5,6,7,8-tetrahydro-1,5-naphthyridin-2-yl)ethyl)benzamide]"
11,4.5 nM,"C[C@H](C(=O)Nc1ccc(F)cc1)c1ccc2c(c1)CCCN2C(=O)C1CCC1 [Example 80, (2S)-2-[1-(cyclobutanecarbonyl)-1,2,3,4-tetrahydroquinolin-6-yl]-N-(4-fluorophenyl)propanamide]"
12,124 nM,"C[C@@H](C(=O)Nc1ccc(F)cn1)c1ccc2c(c1)CCCN2C(=O)C1CC1 (single isomer, unassigned) [Example 60]"
13,67.1 nM,"O=C(Nc1ccc(F)cn1)C1(c2ccc3c(c2)CCCN3S(=O)(=O)N2CCCC2)CCC1 [Example 122, N-(5-fluoropyridin-2-yl)-1-{1-[(pyrrolidin-1-yl)sulfonyl]-1,2,3,4-tetrahydroquinolin-6-yl}cyclobutane-1-carboxamide]"
14,5.2 nM,"O=C(C1CCO1)N1CCCc2nc(C3(C(=O)Nc4ccc(F)cc4)CCC3)ccc21 (stereo not shown) [Example 182, N-(4-fluorophenyl)-1-[5-(oxetane-2-carbonyl)-5,6,7,8-tetrahydro-1,5-naphthyridin-2-yl]cyclobutane-1-carboxamide]"
15,702 nM,"CC(C)CC(=O)NCc1ccc2c(c1)CCCN2C(=O)c1cccc(Cl)c1 [Example 17, N-{[1-(3-chlorobenzene-1-carbonyl)-1,2,3.4-tetrahydroquinolin-6-yl]methyl}-3-methylbutanamide]"
16,136 nM,"Cn1ccc(C(=O)NCc2ccc3c(c2)CCCN3C(=O)c2cccc(Cl)c2)n1 [Example 25, N-{[1-(3-chlorobenzene-1-carbonyl)-1,2,3,4-tetrahydroquinolin-6-yl]methyl}-1-methyl-1H-pyrazole-3-carboxamide]"
17,1.48 nM,"O=C(OC1CC1)N1CCCc2nc(C3(C(=O)Nc4ccc(Cl)cc4)COC3)ccc21 [compound 398, cyclopropyl 6-(3-((4-chlorophenyl)carbamoyl)oxetan-3-yl)-3,4-dihydro-1,5-naphthyridine-1(2H)-carboxylate]"
18,74.6 nM,"C[C@@H](NC(=O)c1ccc(Cl)cc1)c1ccc2c(n1)OCCN2C(=O)c1cccc(Cl)c1 (single isomer, unassigned) [Example 255, 4-Chloro-N-(1-(1-(3-chlorobenzoyl)-2,3-dihydro-1H-pyrido[2,3-b][1,4]oxazin-6-yl)ethyl)benzamide]"
19,6.9 nM,"CC(C)CC(=O)N1CCCc2cc(CC(=O)Nc3ccc(Cl)cc3)ccc21 [Example 35, N-(4-chlorophenyl)-2-(1-(3-methylbutanoyl)-1,2,3,4-tetrahydroquinolin-6-yl)acetamide]"
20,26.2 nM,"O=C(Nc1ccc(F)cn1)C1(c2ccc3c(c2)CCCN3S(=O)(=O)C2CC2)CCC1 [Example 124, 1-[1-(cyclopropylsulfonyl)-1,2,3,4-tetrahydroquinolin-6-yl]-N-(5-fluoropyridin-2-yl)cyclobutane-1-carboxamide]"
21,1240 nM,"COCCOCC(=O)N1CCCc2cc([C@H](C)C(=O)Nc3ccc(F)cc3)ccc21 [Example 77, (2S)-N-(4-fluorophenyl)-2-{1-[(2-methoxyethoxy)acetyl]-1,2,3,4-tetrahydroquinolin-6-yl}propanamide]"

# Same assay, conditions: read-out: Hela IC50
row,IC50,SMILES
1,13 nM,"COc1cc(N2CCCc3nc(C(C)NC(=O)c4ccc(F)cc4)ccc32)ncn1 (stereo not shown) [Example 379, 4-fluoro-N-(1-(5-(6-methoxypyrimidin-4-yl)-5,6,7,8-tetrahydro-1,5-naphthyridin-2-yl)ethyl)benzamide]"
2,25.6 nM,"Cc1nc(N2CCCc3nc(C(C)NC(=O)c4ccc(Cl)cc4)ccc32)c2cc(F)ccc2n1 (stereo not shown) [Example 360, 2-(1-(4-chlorobenzamido)ethyl)-5-(6-fluoro-2-methylquinazolin-4-yl)-5,6,7,8-tetrahydro-1,5-naphthyridin-1-ium 2,2,2-trifluoroacetate]"
3,2.72 nM,"Cc1nccc(N2CCCc3nc(C(C)C(=O)Nc4ccc(F)cc4)ccc32)n1 (stereo not shown) [Example 371, N-(4-fluorophenyl)-2-(5-(2-methylpyrimidin-4-yl)-5,6,7,8-tetrahydro-1,5-naphthyridin-2-yl)propanamide]"
